The source made the active and inactive calls.
Legend:
MC-38 [1] = test: Antitumor immunity against mouse MC-38 cells implanted in syngenic C57BL/6J mouse model assessed as upregulation of PD-L1 expression in dendritic cells at 50 mg/kg, IG administered twice daily for 14 days by flow cytometric analysis; format: functional, organism-based; settings: time 14.0 day
MC-38 [2] = test: Antitumor immunity against mouse MC-38 cells implanted in syngenic C57BL/6J mouse model assessed as increase in TNF-alpha expression at 50 mg/kg, IG administered twice daily for 14 days; format: functional, organism-based; settings: time 14.0 day
MC-38 [3] = test: Antitumor immunity against mouse MC-38 cells implanted in syngenic C57BL/6J mouse model assessed as upregulation of PD1 expression in CD8+ T cells at 50 mg/kg, IG administered twice daily for 14 days by flow cytometric analysis; format: functional, organism-based; settings: time 14.0 day
MC-38 [4] = test: Antitumor immunity against mouse MC-38 cells implanted in syngenic C57BL/6J mouse model assessed as increase in CD4+ T cell proportion in tumor at 50 mg/kg, IG administered twice daily for 14 days by flow cytometric analysis; format: functional, organism-based; settings: time 14.0 day
MC-38 [5] = test: Antitumor immunity against mouse MC-38 cells implanted in syngenic C57BL/6J mouse model assessed as inhibition of M2 polarization of tumor associated macrophage in tumor at 50 mg/kg, IG administered twice daily for 14 days by flow cytometric analysis; format: functional, organism-based; settings: time 14.0 day
MC-38 [6] = test: Antitumor activity against mouse MC-38 cells implanted in syngenic C57BL/6J mouse model at 50 mg/kg, IG administered twice daily for 14 days by H&E staining based analysis; format: functional, organism-based; settings: time 14.0 day
Jurkat T [7] = test: Activation of TCR signaling in […] transfected human Jurkat T cells assessed as increase in ERK phosphorylation preincubated with compound for 1 hrs followed by anti-CD3 stimulation and measured after 45 mins by immunoblot analysis; format: cell-based; settings: time 105.0 min
MC-38 [8] = test: Antitumor immunity against mouse MC-38 cells implanted in syngenic C57BL/6J mouse model assessed as increase in Ki67 positive CD4+ T cells at 50 mg/kg, IG administered twice daily for 14 days by Ki67 staining based flow cytometric analysis; format: functional, organism-based; settings: time 14.0 day
MC-38 [9] = test: Antitumor activity against mouse MC-38 cells implanted in syngenic C57BL/6J mouse model assessed as tumor growth inhibition at 50 mg/kg, IG administered twice daily for 14 days relative to control; format: functional; settings: MC-38, po, 336 h, time 14 day, read-out: TGI
MC-38 [10] = test: Antitumor immunity against mouse MC-38 cells implanted in syngenic C57BL/6J mouse model assessed as upregulation of PD-L1 expression in macrophages at 50 mg/kg, IG administered twice daily for 14 days by flow cytometric analysis; format: functional, organism-based; settings: time 14.0 day
MC-38 [11] = test: Antitumor immunity against mouse MC-38 cells implanted in syngenic C57BL/6J mouse model assessed as increase in NKT cell proportion at 50 mg/kg, IG administered twice daily for 14 days; format: functional, organism-based; settings: time 14.0 day
[12] = Upregulation of PD-L1 expression in mouse MC-38 cells at 10 uM incubated for 48 hrs by flow cytometric analysis (reference value: 23.3%); format: functional
MC-38 [13] = test: Antitumor immunity against mouse MC-38 cells implanted in syngenic C57BL/6J mouse model assessed as increase in CD8+ T cell proportion in tumor at 50 mg/kg, IG administered twice daily for 14 days by flow cytometric analysis; format: functional, organism-based; settings: time 14.0 day
Jurkat T [14] = test: Activation of TCR signaling in […] transfected human Jurkat T cells assessed as increase in LCK phosphorylation preincubated with compound for 1 hrs followed by anti-CD3 stimulation and measured after 45 mins by immunoblot analysis; format: cell-based; settings: time 105.0 min
MC-38 [15] = test: Antiproliferative activity against mouse MC-38 cells assessed as reduction in cell viability upto 4 uM incubated for 72 hrs by CCK8 assay; format: functional, cell-based
MC-38 [16] = test: Antitumor immunity against mouse MC-38 cells implanted in syngenic C57BL/6J mouse model assessed as increase in tumor infiltration of CD8+ T cells at 50 mg/kg, IG administered twice daily for 14 days by DAPI staining based immunofluorescence analysis; format: functional, organism-based; settings: time 14.0 day
Jurkat T [17] = test: Activation of TCR signaling in human Jurkat T cells assessed as increase in LCK phosphorylation preincubated with compound for 1 hrs followed by anti-CD3 stimulation and measured after 45 mins by immunoblot analysis; format: cell-based; settings: filed as activator, time 105.0 min
Jurkat T [18] = test: Activation of TCR signaling in human Jurkat T cells assessed as increase in ERK phosphorylation preincubated with compound for 1 hrs followed by anti-CD3 stimulation and measured after 45 mins by immunoblot analysis; format: cell-based; settings: filed as activator, time 105.0 min
MC-38 [19] = test: Antitumor immunity against mouse MC-38 cells implanted in syngenic C57BL/6J mouse model assessed as increase in M1 tumor associated macrophage proportion in spleen at 50 mg/kg, IG administered twice daily for 14 days by flow cytometric analysis; format: functional, organism-based; settings: time 14.0 day
[20] = Upregulation of PD-L1 expression in mouse MC-38 cells at 20 uM incubated for 48 hrs by flow cytometric analysis (reference value: 23.3%); format: functional
MC-38 [21] = test: Antitumor immunity against mouse MC-38 cells implanted in syngenic C57BL/6J mouse model assessed as increase in IFN-gamma expression at 50 mg/kg, IG administered twice daily for 14 days; format: functional, organism-based; settings: time 14.0 day
MC-38 [22] = test: Antitumor immunity against mouse MC-38 cells implanted in syngenic C57BL/6J mouse model assessed as inhibition of M2 polarization of tumor associated macrophage in spleen at 50 mg/kg, IG administered twice daily for 14 days by flow cytometric analysis; format: functional, organism-based; settings: time 14.0 day
[23] = target: T1, Tyrosine-protein phosphatase non-receptor type 12 (Homo sapiens, UniProt Q05209); test: Inhibition of N-terminal His-tagged PTPN12 catalytic domain (1 to 294 residues) (unknown origin) expressed in Escherichia coli BL21 (DE3) cells
T1 sequence (Q05209 whole entry): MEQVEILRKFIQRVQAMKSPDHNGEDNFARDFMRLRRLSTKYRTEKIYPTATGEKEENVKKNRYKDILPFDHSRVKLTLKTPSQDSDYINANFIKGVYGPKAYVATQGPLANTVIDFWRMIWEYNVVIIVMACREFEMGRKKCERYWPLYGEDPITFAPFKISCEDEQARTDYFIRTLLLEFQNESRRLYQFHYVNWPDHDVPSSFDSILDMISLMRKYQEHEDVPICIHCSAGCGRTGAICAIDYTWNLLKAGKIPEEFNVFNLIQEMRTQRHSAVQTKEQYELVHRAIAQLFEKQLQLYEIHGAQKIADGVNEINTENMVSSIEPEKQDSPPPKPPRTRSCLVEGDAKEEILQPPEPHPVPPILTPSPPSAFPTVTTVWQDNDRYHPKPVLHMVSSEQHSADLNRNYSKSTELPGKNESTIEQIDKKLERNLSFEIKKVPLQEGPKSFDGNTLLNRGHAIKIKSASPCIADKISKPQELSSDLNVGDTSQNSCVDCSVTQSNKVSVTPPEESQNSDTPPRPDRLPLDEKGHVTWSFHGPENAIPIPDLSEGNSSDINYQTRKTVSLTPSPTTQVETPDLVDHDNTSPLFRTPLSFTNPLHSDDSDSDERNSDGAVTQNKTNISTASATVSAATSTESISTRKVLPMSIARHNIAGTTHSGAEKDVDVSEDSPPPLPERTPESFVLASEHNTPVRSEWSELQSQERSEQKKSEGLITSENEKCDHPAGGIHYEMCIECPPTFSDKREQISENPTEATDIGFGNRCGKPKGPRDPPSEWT

COc1ccc(-c2ccc(CN(c3ccc4oc(C(=O)O)cc4c3)S(=O)(=O)c3ccc(Cl)c([N+](=O)[O-])c3)cc2)cc1
69.6%: inhibition in vivo at 50 mg/kg (MC-38 [9])
37.2%: Activity [12]
inactive: Activity (Jurkat T [7]) | Activity (Jurkat T [14]) | Activity (MC-38 [15])
43.6%: Activity [20]
12.3 µM: IC50 [23]
active: Activity (MC-38 [1]) | Activity (MC-38 [2]) | Activity (MC-38 [3]) | Activity (MC-38 [4]) | Activity (MC-38 [5]) | Activity (MC-38 [6]) | Activity (MC-38 [8]) | Activity (MC-38 [10]) | Activity (MC-38 [11]) | Activity (MC-38 [13]) | Activity (MC-38 [16]) | Activity (Jurkat T [17]) | Activity (Jurkat T [18]) | Activity (MC-38 [19]) | Activity (MC-38 [21]) | Activity (MC-38 [22])

O=C(O)c1cc2cc(N(Cc3cccc(-c4ccccc4)c3)S(=O)(=O)c3ccc(-c4ccccc4)cc3)ccc2o1
6.4 µM: IC50 [23]

O=C(O)c1cc2cc(N(Cc3ccc(-c4ccccc4)cc3)S(=O)(=O)c3ccc(-c4cccc(O)c4)cc3)ccc2o1
10.6 µM: IC50 [23]

O=C(O)c1cc2cc(N(Cc3ccc(OCc4ccccc4)cc3)S(=O)(=O)c3ccc(-c4ccccc4)cc3)ccc2o1
65%: inhibition in vivo at 50 mg/kg (MC-38 [9])
46.1%: Activity [12]
11.7 µM: IC50 [23]
59.2%: Activity [20]
inactive: Activity (Jurkat T [7]) | Activity (Jurkat T [14]) | Activity (MC-38 [15])
active: Activity (MC-38 [1]) | Activity (MC-38 [2]) | Activity (MC-38 [3]) | Activity (MC-38 [4]) | Activity (MC-38 [5]) | Activity (MC-38 [6]) | Activity (MC-38 [8]) | Activity (MC-38 [10]) | Activity (MC-38 [11]) | Activity (MC-38 [13]) | Activity (MC-38 [16]) | Activity (Jurkat T [17]) | Activity (Jurkat T [18]) | Activity (MC-38 [19]) | Activity (MC-38 [21]) | Activity (MC-38 [22])

CC(=O)C1=C(C)N=c2s/c(=C/c3ccc(OCc4ccc(C(=O)O)cc4)cc3)c(=O)n2C1c1ccc(N(C)C)cc1 (centres undefined)
8.2 µM: IC50 [23]
